Measurements from patent US5654451A, “Amino acids and peptides having modified C-terminals and modified N-terminals” (Magainin Pharmaceuticals Inc., priority 1995, dated 1997).
≈ marks a conversion by molar mass, not a printed value.

Columns and labels:
Experiment in all cases: Antimicrobial assay (MIC, microtiter broth dilution)
Assay type in all cases: cell-based
[1] = system: C. tropicalis
[2] = system: C. kefyr; settings: strain 28838
[3] = system: C. albicans; settings: for MIC C. albicans: Table I; for MIC C. albicans 14053: strain 14053; for MIC Candida: Table VI
Protocol: (§1) The procedure for the antimicrobial assay is based upon the guidelines of the National Committee for Clinical Laboratory Standards, Document M7-T2, Volume 8, No. 8, 1988.
(§2) 1-5×10^5 CFUs/ml of either S. aureus ATCC 25923, E. coli ATCC 25922, P. aeruginosa ATCC 27853, or C. albicans were added to the wells in full strength Mueller Hinton broth (BBL 11443) from a mid-log culture. The inoculum is standardized spectrophotometrically at 600 nm and is verified by colony counts. The plates are incubated for 16-20 hours at 37° C., and the minimal inhibitory concentrations (MIC) for the compounds are determined. Minimal inhibitory concentration is defined as the lowest concentration of amino acid or peptide which produces a clear well in the microtiter plate.

[4] = system: E. coli; settings: for MIC E. coli 25922: strain 25922 (Tables II-V)
Protocol: as §1, §2

[5] = system: P. aeruginosa; settings: for MIC P aeruginosa: Table I, P. aeruginosa ATCC 27853; for MIC P. aeruginosa 27853: strain 27853 (Tables II-V); for MIC Psuedo: Table VI
Protocol: as §1, §2

[6] = system: S. aureus; settings: for MIC S. aureus: Table I, S. aureus ATCC 25923; for MIC S. aureus 29213: strain 29213 (Tables II-V); for MIC Staph: Table VI
Protocol: as §1, §2

[7] = system: C. parapsilosis
[8] = system: C. difficile; settings: for MIC C. difficile TTU614: strain TTU614; for MIC C. difficile P324: strain P324
[9] = system: B. fragilis; settings: strain 25285
[10] = system: L. fermentum; settings: strain 23271
[11] = system: T. mentagrophytes; settings: strain 18748
[12] = system: T. rubrum; settings: strain 36262
[13] = system: M. canis; settings: strain 11621
[14] = system: E. floccosum; settings: strain 52062

N=C(N)NCCCCCCCCCCCCNC(=N)N [Compound 36, 1,12 [bisguanyl]diaminododecane]
MIC C. tropicalis 13803 ([1]; strain 13803): 0.5 µg/mL (≈ 1.76 µM)
MIC C. tropicalis 28707 ([1]; strain 28707): ≤ 0.25 µg/mL
MIC C. kefyr 28838 [2]: 4 µg/mL (≈ 14.1 µM)
MIC C. albicans [3]: 32 µg/mL (≈ 112 µM)
MIC C. albicans 14053 [3]: 4,32 μg/ml
MIC E. coli ([4]; Table I, E. coli ATCC 25922): 32 µg/mL (≈ 112 µM)
MIC E. coli 25922 [4]: 32 µg/mL (≈ 112 µM)
MIC P aeruginosa [5]: 128 µg/mL (≈ 450 µM)
MIC P. aeruginosa 27853 [5]: 128 µg/mL (≈ 450 µM)
MIC S. aureus [6]: 8 µg/mL (≈ 28.1 µM)
MIC S. aureus 29213 [6]: 8 µg/mL (≈ 28.1 µM)
MIC C. parapsilosis 10232 ([7]; strain 10232): 0.5 µg/mL (≈ 1.76 µM)
MIC C. parapsilosis 22109 ([7]; strain 22109): 4 µg/mL (≈ 14.1 µM)

N=C(N)NC(Cc1ccccc1)C(=O)Nc1ccc(C=Cc2ccc(NC(=O)C(N)Cc3ccccc3)cc2)cc1 (stereo not drawn) [Compound 24, 4-(N-α-amidino-phenylalanyl)-4'-phenylalanyl-diaminostilbene]
MIC C. difficile TTU614 [8]: 16 µg/mL (≈ 29.3 µM)
MIC B. fragilis 25285 [9]: 8 µg/mL (≈ 14.6 µM)
MIC L. fermentum 23271 [10]: 4 µg/mL (≈ 7.32 µM)
MIC C. albicans 14053 [3]: 256 µg/mL (≈ 468 µM)
MIC E. coli 25922 [4]: 16 µg/mL (≈ 29.3 µM)
MIC P. aeruginosa 27853 [5]: 32,64 μg/ml

CCCCCCCCN(CCCCCCCC)C(=O)C(CC1CCCCC1)NC(=N)N (stereo not drawn) [Compound 74, N^α -Amidino-Cha-dioctylamide]
MIC Candida [3]: 2 µg/mL (≈ 4.58 µM)
MIC E. coli ([4]; Table VI): > 256 µg/mL
MIC Psuedo [5]: > 256 µg/mL
MIC Staph [6]: 2 µg/mL (≈ 4.58 µM)

p-Guanidino methyl-benzoyl dioctylamide [Compound 72]
MIC Candida [3]: 0.5 µg/mL
MIC E. coli ([4]; Table VI): 4 µg/mL
MIC Psuedo [5]: 64 µg/mL
MIC Staph [6]: 1 µg/mL

CCCCCCCCN(CCCCCCCC)C(=O)C(Cc1ccc(N)cc1)NC(=N)N (stereo not drawn) [Compound 88, N^α -Amidino-p-amino-Phe-dioctylamide]
MIC Candida [3]: 0.5 µg/mL (≈ 1.12 µM)
MIC E. coli ([4]; Table VI): 4 µg/mL (≈ 8.97 µM)
MIC Psuedo [5]: 32 µg/mL (≈ 71.8 µM)
MIC Staph [6]: 1 µg/mL (≈ 2.24 µM)

N=C(N)NC(Cc1ccccc1)C(=O)NC1CCCCC1 (stereo not drawn) [Compound 77, N^α -Amidino-Phe-cyclohexylamide]
MIC Candida [3]: > 256 µg/mL
MIC E. coli ([4]; Table VI): > 256 µg/mL
MIC Psuedo [5]: > 256 µg/mL
MIC Staph [6]: 128 µg/mL (≈ 444 µM)

N=C(N)NC(Cc1ccccc1)C(=O)NC12CC3CC(CC(C3)C1)C2 (stereo not drawn) [Compound 76, N^α -Amidino-Phe-adamantanamide]
MIC Candida [3]: 128 µg/mL (≈ 376 µM)
MIC E. coli ([4]; Table VI): 256 µg/mL (≈ 752 µM)
MIC Psuedo [5]: 256 µg/mL (≈ 752 µM)
MIC Staph [6]: 16 µg/mL (≈ 47 µM)

N-α-amidino phenylalanyl hexadecylamide [Compound 34]
MIC C. albicans [3]: 64 µg/mL
MIC E. coli ([4]; Table I, E. coli ATCC 25922): > 256 µg/mL
MIC P aeruginosa [5]: > 256 µg/mL
MIC S. aureus [6]: 32 µg/mL

N=C(N)NC(Cc1ccc(O)cc1)C(=O)NCCCCCCCCCCCCNC(=O)C(Cc1ccc(O)cc1)NC(=N)N (stereo not drawn) [Compound 4, 1,12-[bis-N-α-amidino-tyrosyl)diaminododecane]
MIC C. difficile P324 [8]: 4 µg/mL (≈ 6.55 µM)
MIC C. difficile TTU614 [8]: 32 µg/mL (≈ 52.4 µM)
MIC B. fragilis 25285 [9]: 256 µg/mL (≈ 419 µM)
MIC L. fermentum 23271 [10]: 4,8 μg/ml
MIC C. albicans [3]: > 256 µg/mL
MIC C. albicans 14053 [3]: 128,256 μg/ml
MIC E. coli ([4]; Table I, E. coli ATCC 25922): 128 µg/mL (≈ 210 µM)
MIC E. coli 25922 [4]: 64,256 μg/ml
MIC P aeruginosa [5]: 128 µg/mL (≈ 210 µM)
MIC P. aeruginosa 27853 [5]: 128 µg/mL (≈ 210 µM)
MIC S. aureus [6]: 2 µg/mL (≈ 3.27 µM)
MIC S. aureus 29213 [6]: 2,4 μg/ml

CCCCCCCCN(CCCCCCCC)C(=O)CC(O)CNC(=N)N (stereo not drawn) [Compound 84, γ-Guanidino-β-hydroxy butyrul dioctylamide]
MIC Candida [3]: 0.5 µg/mL (≈ 1.3 µM)
MIC E. coli ([4]; Table VI): 4 µg/mL (≈ 10.4 µM)
MIC Psuedo [5]: 16 µg/mL (≈ 41.6 µM)
MIC Staph [6]: 1 µg/mL (≈ 2.6 µM)

NC(N)=NC(Cc1ccccc1)C(=O)NCCCCCCCNC(=O)C(Cc1ccccc1)N=C(N)N (stereo not drawn) [Compound 6, 1,7-[bis-N-α-amidino-phenylalanyl]diaminoheptane]
MIC C. difficile P324 [8]: 128 µg/mL (≈ 252 µM)
MIC B. fragilis 25285 [9]: 256 µg/mL (≈ 503 µM)
MIC L. fermentum 23271 [10]: 64 µg/mL (≈ 126 µM)
MIC C. albicans [3]: 256 µg/mL (≈ 503 µM)
MIC C. albicans 14053 [3]: 256 µg/mL (≈ 503 µM)
MIC E. coli ([4]; Table I, E. coli ATCC 25922): > 256 µg/mL
MIC E. coli 25922 [4]: > 256 µg/mL
MIC P aeruginosa [5]: > 256 µg/mL
MIC P. aeruginosa 27853 [5]: > 256 µg/mL
MIC S. aureus [6]: 64 µg/mL (≈ 126 µM)
MIC S. aureus 29213 [6]: 64,128 μg/ml

N-α-amidino-phenylalanyl dodecylamide [Compound 31]
MIC C. albicans [3]: 4 µg/mL
MIC E. coli ([4]; Table I, E. coli ATCC 25922): 8 µg/mL
MIC P aeruginosa [5]: 64 µg/mL
MIC S. aureus [6]: 2 µg/mL

γ-Guanidino-butyryl dioctylamide [Compound 71]
MIC Candida [3]: < 0.25 µg/mL
MIC E. coli ([4]; Table VI): 4 µg/mL
MIC Psuedo [5]: 32 µg/mL
MIC Staph [6]: 0.5 to 1.0 µg/mL

CCCCCCCCN(CCCCCCCC)C(=O)[C@H](Cc1ccccc1)NC(=O)CC(O)CNC(=N)N (stereo partly drawn) [Compound 85, γ-Guanidino-β-hydroxy butyryl-Phe-dioctylamide]
MIC Candida [3]: 0.5 µg/mL (≈ 0.94 µM)
MIC E. coli ([4]; Table VI): 32 µg/mL (≈ 60.2 µM)
MIC Psuedo [5]: 64 µg/mL (≈ 120 µM)
MIC Staph [6]: 1 µg/mL (≈ 1.88 µM)

CCCCCCCCN(CCCCCCCC)C(=O)C(Cc1ccccc1)N=C(N)N (stereo not drawn) [Compound 32, N-α-amidino-phenylalanyl dioctylamide]
MIC C. albicans [3]: 2 µg/mL (≈ 4.64 µM)
MIC E. coli ([4]; Table I, E. coli ATCC 25922): 8 µg/mL (≈ 18.6 µM)
MIC P aeruginosa [5]: 128 µg/mL (≈ 297 µM)
MIC S. aureus [6]: 1,2 μg/ml

N=C(N)NC(CCC(=O)NC12CC3CC(CC(C3)C1)C2)C(=O)NC12CC3CC(CC(C3)C1)C2 (stereo not drawn) [Compound 86, N^α -Amidino-Glu-(α,γ) diadamantanamide]
MIC Candida [3]: 32 to 64 µg/mL
MIC E. coli ([4]; Table VI): 128 µg/mL (≈ 281 µM)
MIC Psuedo [5]: 128 µg/mL (≈ 281 µM)
MIC Staph [6]: 4 µg/mL (≈ 8.78 µM)

β-Guanidino-propionyl dioctylamide [Compound 75]
MIC Candida [3]: 1.0 µg/mL
MIC E. coli ([4]; Table VI): 4 to 8 µg/mL
MIC Psuedo [5]: 16 µg/mL
MIC Staph [6]: 0.5 to 1.0 µg/mL

phenylalanyl heptylamide [Compound 26]
MIC C. albicans [3]: 128 µg/mL
MIC E. coli ([4]; Table I, E. coli ATCC 25922): 128 µg/mL
MIC P aeruginosa [5]: > 256 µg/mL
MIC S. aureus [6]: 256 µg/mL

CCCCCCCCN(CCCCCCCC)C(=O)C(Cc1ccc2ccccc2c1)N=C(N)N (stereo not drawn) [Compound 73, N^α -Amidino-β-Nal-dioctylamide]
MIC Candida [3]: 4 µg/mL (≈ 8.32 µM)
MIC E. coli ([4]; Table VI): > 256 µg/mL
MIC Psuedo [5]: > 256 µg/mL
MIC Staph [6]: 4 µg/mL (≈ 8.32 µM)

NC(Cc1ccc(F)cc1)C(=O)NCCCCCCCCCCCCNC(=O)C(N)Cc1ccc(F)cc1 (stereo not shown) [Compound 19]
MIC T. mentagrophytes 18748 [11]: 4 µg/mL (≈ 7.54 µM)
MIC T. rubrum 36262 [12]: 16 µg/mL (≈ 30.1 µM)
MIC M. canis 11621 [13]: 32 µg/mL (≈ 60.3 µM)
MIC E. floccosum 52062 [14]: 16 µg/mL (≈ 30.1 µM)
MIC C. albicans 14053 [3]: 32 µg/mL (≈ 60.3 µM)
MIC E. coli 25922 [4]: 16 µg/mL (≈ 30.1 µM)
MIC P. aeruginosa 27853 [5]: 256 µg/mL (≈ 482 µM)
MIC S. aureus 29213 [6]: 4 µg/mL (≈ 7.54 µM)

CCCCCN(CCCCC)C(=O)C(Cc1ccccc1)NC(=N)N (stereo not drawn) [Compound 67, N^α -Amidino-Phe-dipentylamide]
MIC Candida [3]: 64 µg/mL (≈ 185 µM)
MIC E. coli ([4]; Table VI): 64 µg/mL (≈ 185 µM)
MIC Psuedo [5]: 128 µg/mL (≈ 369 µM)
MIC Staph [6]: 4 µg/mL (≈ 11.5 µM)

CCCCCCCCN(CCCCCCCC)C(=O)[C@@H](Cc1ccccc1)NC(=N)N [Compound 70, N^α -Amidino-D Phe-dioctylamide]
MIC Candida [3]: 2 µg/mL (≈ 4.64 µM)
MIC E. coli ([4]; Table VI): 64 µg/mL (≈ 149 µM)
MIC Psuedo [5]: 256 µg/mL (≈ 594 µM)
MIC Staph [6]: 2 µg/mL (≈ 4.64 µM)

CCCCCCN(CCCCCC)C(=O)C(Cc1ccccc1)NC(=N)N (stereo not drawn) [Compound 68, N^α -Amidino-Phe-dihexylamide]
MIC Candida [3]: 4 to 16 µg/mL
MIC E. coli ([4]; Table VI): 16 to 32 µg/mL
MIC Psuedo [5]: 16 to 64 µg/mL
MIC Staph [6]: 0.5 to 1.0 µg/mL

CCCCCCCCN(CCCCCCCC)C(=O)C(N)Cc1ccccc1 (stereo not shown) [Compound 81, Phe-dioctylamide]
MIC Candida [3]: > 256 µg/mL
MIC E. coli ([4]; Table VI): > 256 µg/mL
MIC Psuedo [5]: > 256 µg/mL
MIC Staph [6]: 4 µg/mL (≈ 10.3 µM)

CCCCCCCCN(CCCCCCCC)C(=O)CCCCNC(=N)N [Compound 79, S-Guanidino Valeryl-dioctylamide]
MIC Candida [3]: 1 to 2 µg/mL
MIC E. coli ([4]; Table VI): 8 µg/mL (≈ 20.9 µM)
MIC Psuedo [5]: > 256 µg/mL
MIC Staph [6]: 2 µg/mL (≈ 5.23 µM)
